Experimental data reported in ChEMBL document CHEMBL1150850, “Cytotoxic principles from Ventilago leiocarpa” (J Nat Prod, 2001).

Experiments:
Calu-1 [1] = test: Inhibition of human Calu1 cell proliferation assessed as [3H]thymidine incorporation after 3 days by scintillation counting; format: functional, cell-based
HeLa [2] = test: Inhibition of human HeLa cell proliferation assessed as [3H]thymidine incorporation after 3 days by scintillation counting; format: functional, cell-based
K562 [3] = test: Inhibition of human K562 cell proliferation assessed as [3H]thymidine incorporation after 3 days by scintillation counting; format: functional, cell-based
Raji [4] = test: Inhibition of human Raji cell proliferation assessed as [3H]thymidine incorporation after 3 days by scintillation counting; format: functional, cell-based
Vero [5] = test: Inhibition of african green monkey Vero cell proliferation assessed as [3H]thymidine incorporation after 3 days by scintillation counting; format: cell-based; conditions: Chlorocebus sabaeus
WISH [6] = test: Inhibition of human WISH cell proliferation assessed as [3H]thymidine incorporation after 3 days by scintillation counting; format: functional, cell-based
Calu-1 [7] = test: Growth inhibition of human Calu1 cells assessed as [3H]thymidine incorporation at 100 uM after 3 days by scintillation counting; format: functional; conditions: read-out: GI
Calu-1 [8] = test: Growth inhibition of human Calu1 cells assessed as [3H]thymidine incorporation at 50 uM after 3 days by scintillation counting; format: functional; conditions: read-out: GI
Calu-1 [9] = test: Growth inhibition of human Calu1 cells assessed as [3H]thymidine incorporation at 25 uM after 3 days by scintillation counting; format: functional; conditions: read-out: GI
Calu-1 [10] = test: Growth inhibition of human Calu1 cells assessed as [3H]thymidine incorporation at 12.5 uM after 3 days by scintillation counting; format: functional; conditions: read-out: GI
Calu-1 [11] = test: Growth inhibition of human Calu1 cells assessed as [3H]thymidine incorporation at 6.25 uM after 3 days by scintillation counting; format: functional; conditions: read-out: GI
HeLa [12] = test: Growth inhibition of human HeLa cells assessed as [3H]thymidine incorporation at 100 uM after 3 days by scintillation counting; format: functional; conditions: read-out: GI
HeLa [13] = test: Growth inhibition of human HeLa cells assessed as [3H]thymidine incorporation at 50 uM after 3 days by scintillation counting; format: functional; conditions: read-out: GI
HeLa [14] = test: Growth inhibition of human HeLa cells assessed as [3H]thymidine incorporation at 25 uM after 3 days by scintillation counting; format: functional; conditions: read-out: GI
HeLa [15] = test: Growth inhibition of human HeLa cells assessed as [3H]thymidine incorporation at 12.5 uM after 3 days by scintillation counting; format: functional; conditions: read-out: GI
HeLa [16] = test: Growth inhibition of human HeLa cells assessed as [3H]thymidine incorporation at 6.25 uM after 3 days by scintillation counting; format: functional; conditions: read-out: GI
K562 [17] = test: Growth inhibition of human K562 cells assessed as [3H]thymidine incorporation at 100 uM after 3 days by scintillation counting; format: functional; conditions: read-out: GI
Raji [18] = test: Growth inhibition of human Raji cells assessed as [3H]thymidine incorporation at 100 uM after 3 days by scintillation counting; format: functional; conditions: read-out: GI
Raji [19] = test: Growth inhibition of human Raji cells assessed as [3H]thymidine incorporation at 50 uM after 3 days by scintillation counting; format: functional; conditions: read-out: GI
Raji [20] = test: Growth inhibition of human Raji cells assessed as [3H]thymidine incorporation at 25 uM after 3 days by scintillation counting; format: functional; conditions: read-out: GI
Raji [21] = test: Growth inhibition of human Raji cells assessed as [3H]thymidine incorporation at 12.5 uM after 3 days by scintillation counting; format: functional; conditions: read-out: GI
Raji [22] = test: Growth inhibition of human Raji cells assessed as [3H]thymidine incorporation at 6.25 uM after 3 days by scintillation counting; format: functional; conditions: read-out: GI
[23] = Growth inhibition of african green monkey Vero cells assessed as [3H]thymidine incorporation at 100 uM after 3 days by scintillation counting; format: cell-based; conditions: chlorocebus sabaeus, read-out: GI
[24] = Growth inhibition of african green monkey Vero cells assessed as [3H]thymidine incorporation at 50 uM after 3 days by scintillation counting; format: cell-based; conditions: chlorocebus sabaeus, read-out: GI
[25] = Growth inhibition of african green monkey Vero cells assessed as [3H]thymidine incorporation at 25 uM after 3 days by scintillation counting; format: cell-based; conditions: chlorocebus sabaeus, read-out: GI
Vero [26] = test: Growth inhibition of african green monkey Vero cells assessed as [3H]thymidine incorporation at 12.5 uM after 3 days by scintillation counting; format: cell-based; conditions: chlorocebus sabaeus, 72 h
[27] = Growth inhibition of african green monkey Vero cells assessed as [3H]thymidine incorporation at 6.25 uM after 3 days by scintillation counting; format: cell-based; conditions: chlorocebus sabaeus, read-out: GI
WISH [28] = test: Growth inhibition of human WISH cells assessed as [3H]thymidine incorporation at 100 uM after 3 days by scintillation counting; format: functional; conditions: read-out: GI
WISH [29] = test: Growth inhibition of human WISH cells assessed as [3H]thymidine incorporation at 50 uM after 3 days by scintillation counting; format: functional; conditions: read-out: GI
WISH [30] = test: Growth inhibition of human WISH cells assessed as [3H]thymidine incorporation at 25 uM after 3 days by scintillation counting; format: functional; conditions: read-out: GI
WISH [31] = test: Growth inhibition of human WISH cells assessed as [3H]thymidine incorporation at 12.5 uM after 3 days by scintillation counting; format: functional; conditions: read-out: GI
WISH [32] = test: Growth inhibition of human WISH cells assessed as [3H]thymidine incorporation at 6.25 uM after 3 days by scintillation counting; format: functional; conditions: read-out: GI

Q: Which IC50 (Calu-1 [1]) does the source give for `COC1=C(O)C(=O)c2c(O)c3c(c(OC)c2C1=O)CC(C)OC3C` (stereo not drawn) [VENTILOQUINONE K] here?
A: > 100 µM

Q: And the IC50 (HeLa [2])?
A: > 100 µM

Q: And the IC50 (K562 [3])?
A: > 100 µM

Q: What about the IC50 (Raji [4]) of the same compound?
A: > 100 µM

Q: And the IC50 (Vero [5])?
A: > 100 µM

Q: And the IC50 (WISH [6])?
A: > 100 µM

Q: For `CC1(C)CC[C@]2(C)CC=C3[C@]4(C)CC[C@H]5C(C)(C)[C@@H](O)CC[C@]5(C)[C@H]4CC[C@@]3(C)[C@@H]2C1` [TARAXEROL], which IC50 (Calu-1 [1]) is on record?
A: > 100 µM

Q: What about the IC50 (HeLa [2]) of the same compound?
A: > 100 µM

Q: And the IC50 (K562 [3])?
A: > 100 µM

Q: And the IC50 (Raji [4])?
A: > 100 µM

Q: And the IC50 (Vero [5])?
A: > 100 µM

Q: What about the IC50 (WISH [6]) of the same compound?
A: > 100 µM

Q: Which results are given for `Cc1cc(O)c2c(c1)C(=O)c1cc(O)cc(O)c1C2=O` [EMODIN]?
A: inhibition of growth at 100 µM (Calu-1 [7]): 100%; inhibition of growth at 50 µM (Calu-1 [8]): 100%; inhibition of growth at 25 µM (Calu-1 [9]): 100%; inhibition of growth at 12.5 µM (Calu-1 [10]): 60.6%; inhibition of growth at 6.25 µM (Calu-1 [11]): 49.4%; IC50 (Calu-1 [1]): 6.25 µM; inhibition of growth at 100 µM (HeLa [12]): 100%; inhibition of growth at 50 µM (HeLa [13]): 100%; inhibition of growth at 25 µM (HeLa [14]): 78.3%; inhibition of growth at 12.5 µM (HeLa [15]): 41.9%; inhibition of growth at 6.25 µM (HeLa [16]): 24.7%; IC50 (HeLa [2]): 15.6 µM; inhibition of growth at 100 µM (K562 [17]): 29.5%; IC50 (K562 [3]): > 100 µM; inhibition of growth at 100 µM (Raji [18]): 100%; inhibition of growth at 50 µM (Raji [19]): 47.2%; inhibition of growth at 25 µM (Raji [20]): 45.8%; inhibition of growth at 12.5 µM (Raji [21]): 41.2%; inhibition of growth at 6.25 µM (Raji [22]): 0.3%; IC50 (Raji [4]): 43.8 µM; inhibition at 72 h, 100 µM [23]: 69.1%; inhibition at 72 h, 50 µM [24]: 64.4%; inhibition at 72 h, 25 µM [25]: 26.7%; growth inhibition (GI) (Vero [26]): 13.7%; inhibition at 72 h, 6.25 µM [27]: 3.3%; IC50 (Vero [5]): 40 µM; inhibition of growth at 100 µM (WISH [28]): 80.7%; inhibition of growth at 50 µM (WISH [29]): 63.3%; inhibition of growth at 25 µM (WISH [30]): 61.9%; inhibition of growth at 12.5 µM (WISH [31]): 22%; inhibition of growth at 6.25 µM (WISH [32]): 8.7%; IC50 (WISH [6]): 28.8 µM

Q: Which IC50 (Calu-1 [1]) does the source give for `Cc1cc(O)c2c(c1O)C(=O)c1cccc(O)c1C2=O` [ISLANDICIN] here?
A: > 100 µM

Q: What about the IC50 (HeLa [2]) of the same compound?
A: > 100 µM

Q: What about the IC50 (K562 [3]) of the same compound?
A: > 100 µM

Q: And the IC50 (Raji [4])?
A: > 100 µM

Q: What about the IC50 (Vero [5]) of the same compound?
A: > 100 µM

Q: What about the IC50 (WISH [6]) of the same compound?
A: > 100 µM

Q: For `COc1c(O)cc2c(c1OC)C(=O)c1c(cc(C)c(O)c1O)C2=O`, which IC50 (Calu-1 [1]) is on record?
A: > 100 µM

Q: What about the IC50 (HeLa [2]) of the same compound?
A: > 100 µM

Q: And the IC50 (K562 [3])?
A: > 100 µM

Q: And the IC50 (Raji [4])?
A: > 100 µM

Q: And the IC50 (Vero [5])?
A: > 100 µM

Q: And the IC50 (WISH [6])?
A: > 100 µM

Q: What does the source list for `COc1cc(C)c(O)c2c1C(=O)c1c(O)cccc1C2=O`?
A: IC50 (Calu-1 [1]): > 100 µM; IC50 (HeLa [2]): > 100 µM; IC50 (K562 [3]): > 100 µM; IC50 (Raji [4]): > 100 µM; IC50 (Vero [5]): > 100 µM; IC50 (WISH [6]): > 100 µM

Q: With `Cc1cc(O)c2c(c1)C(=O)c1cccc(O)c1C2=O` [CHRYSOPHANOL] as the compound, how does the IC50 (Calu-1 [1]) read?
A: > 100 µM

Q: What about the IC50 (HeLa [2]) of the same compound?
A: > 100 µM

Q: What about the IC50 (K562 [3]) of the same compound?
A: > 100 µM

Q: And the IC50 (Raji [4])?
A: > 100 µM

Q: What about the IC50 (Vero [5]) of the same compound?
A: > 100 µM

Q: What about the IC50 (WISH [6]) of the same compound?
A: > 100 µM
